Measurements from PubChem BioAssay (NCI).
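Dose response: 5 concentrations. Exposure: 48 h. Format: 96-well plates. Endpoint: linear interpolation; highest concentration if not reached. Abbreviation: GI50, concentration required for 50% inhibition of growth. The concentration for full growth arrest is given as TGI.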

Key:
Experiment in all cases: NCI anticancer screen, dose series, 48 h
ACHN renal = tested on: ACHN renal
NCI-H522 lung = tested on: NCI-H522 lung
A549 NSCLC = tested on: A549 NSCLC
NCI-H23 lung = tested on: NCI-H23 lung
KM12 colon = tested on: KM12 colon
786-0 renal = tested on: 786-0 renal
CCRF-CEM leukemia = tested on: CCRF-CEM leukemia
OVCAR-5 ovarian = tested on: OVCAR-5 ovarian
HS 578T breast = tested on: HS 578T breast
IGROV1 ovarian = tested on: IGROV1 ovarian
CAKI-1 renal = tested on: CAKI-1 renal
OVCAR-4 ovarian = tested on: OVCAR-4 ovarian
NCI-H226 lung = tested on: NCI-H226 lung
UACC-257 melanoma = tested on: UACC-257 melanoma
HCT-15 colon = tested on: HCT-15 colon
HCC-2998 colon = tested on: HCC-2998 colon
MDA-MB-231 breast = tested on: MDA-MB-231 breast
OVCAR-8 ovarian = tested on: OVCAR-8 ovarian
SF-539 CNS = tested on: SF-539 CNS
DU-145 prostate = tested on: DU-145 prostate
MALME-3M melanoma = tested on: MALME-3M melanoma
SNB-75 CNS = tested on: SNB-75 CNS
SK-MEL-5 melanoma = tested on: SK-MEL-5 melanoma
HL-60(TB) leukemia = tested on: HL-60(TB) leukemia
SK-MEL-28 melanoma = tested on: SK-MEL-28 melanoma
SF-295 CNS = tested on: SF-295 CNS
OVCAR-3 ovarian = tested on: OVCAR-3 ovarian
TK-10 renal = tested on: TK-10 renal
HOP-92 NSCLC = tested on: HOP-92 NSCLC
HCT-116 colon = tested on: HCT-116 colon
COLO 205 colon = tested on: COLO 205 colon
MOLT-4 leukemia = tested on: MOLT-4 leukemia
RXF 393 renal = tested on: RXF 393 renal
BT-549 breast = tested on: BT-549 breast
EKVX NSCLC = tested on: EKVX NSCLC
SN12C renal = tested on: SN12C renal
M14 melanoma = tested on: M14 melanoma
SR leukemia = tested on: SR leukemia
NCI/ADR-RES ovarian = tested on: NCI/ADR-RES ovarian
HOP-62 NSCLC = tested on: HOP-62 NSCLC
K-562 leukemia = tested on: K-562 leukemia
HT29 colon = tested on: HT29 colon
UACC-62 melanoma = tested on: UACC-62 melanoma
SNB-19 CNS = tested on: SNB-19 CNS
UO-31 renal = tested on: UO-31 renal
T-47D breast = tested on: T-47D breast
SW-620 colon = tested on: SW-620 colon
RPMI-8226 leukemia = tested on: RPMI-8226 leukemia
SK-MEL-2 melanoma = tested on: SK-MEL-2 melanoma
MDA-MB-435 = tested on: MDA-MB-435
U251 CNS = tested on: U251 CNS
SK-OV-3 ovarian = tested on: SK-OV-3 ovarian
A498 renal = tested on: A498 renal
PC-3 prostate = tested on: PC-3 prostate
SF-268 CNS = tested on: SF-268 CNS
NCI-H460 lung = tested on: NCI-H460 lung
LOX IMVI melanoma = tested on: LOX IMVI melanoma
MCF7 breast = tested on: MCF7 breast

CCOC(=O)c1ccc(NC2=C(Cl)C(=O)c3nc(C)ccc3C2=O)cc1
GI50 (ACHN renal): 1.81 µM
TGI (ACHN renal): 3.35 µM
GI50 (NCI-H522 lung): 1.71 µM
TGI (NCI-H522 lung): 3.72 µM
GI50 (A549 NSCLC): 19.4 µM
TGI (A549 NSCLC): 70.5 µM
GI50 (NCI-H23 lung): 2.31 µM
TGI (NCI-H23 lung): 7.58 µM
GI50 (KM12 colon): 3.37 µM
TGI (KM12 colon): 12.9 µM
GI50 (786-0 renal): 1.88 µM
TGI (786-0 renal): 3.93 µM
GI50 (CCRF-CEM leukemia): 1.27 µM
TGI (CCRF-CEM leukemia): 4.88 µM
GI50 (OVCAR-5 ovarian): 13.2 µM
TGI (OVCAR-5 ovarian): 33.7 µM
GI50 (HS 578T breast): 2.55 µM
TGI (HS 578T breast): 7 µM
GI50 (IGROV1 ovarian): 3.43 µM
TGI (IGROV1 ovarian): 11.3 µM
GI50 (CAKI-1 renal): 1.53 µM
TGI (CAKI-1 renal): 2.99 µM
GI50 (OVCAR-4 ovarian): 1.67 µM
TGI (OVCAR-4 ovarian): 3.26 µM
GI50 (NCI-H226 lung): 3.43 µM
TGI (NCI-H226 lung): 17.5 µM
GI50 (UACC-257 melanoma): 1.63 µM
TGI (UACC-257 melanoma): 3.12 µM
GI50 (HCT-15 colon): 1.57 µM
TGI (HCT-15 colon): 3.37 µM
GI50 (HCC-2998 colon): 3.63 µM
TGI (HCC-2998 colon): 13.8 µM
GI50 (MDA-MB-231 breast): 3.73 µM
TGI (MDA-MB-231 breast): 17.1 µM
GI50 (OVCAR-8 ovarian): 4.38 µM
TGI (OVCAR-8 ovarian): 18.4 µM
GI50 (SF-539 CNS): 2.52 µM
TGI (SF-539 CNS): 6.72 µM
GI50 (DU-145 prostate): 1.82 µM
TGI (DU-145 prostate): 3.4 µM
GI50 (MALME-3M melanoma): 1.83 µM
TGI (MALME-3M melanoma): 3.62 µM
GI50 (SNB-75 CNS): 2.3 µM
TGI (SNB-75 CNS): 10.3 µM
GI50 (SK-MEL-5 melanoma): 2.21 µM
TGI (SK-MEL-5 melanoma): 5.63 µM
GI50 (HL-60(TB) leukemia): 1.1 µM
TGI (HL-60(TB) leukemia): 3.21 µM
GI50 (SK-MEL-28 melanoma): 2.47 µM
TGI (SK-MEL-28 melanoma): 6.02 µM
GI50 (SF-295 CNS): 5.48 µM
TGI (SF-295 CNS): 19.1 µM
GI50 (OVCAR-3 ovarian): 1.78 µM
TGI (OVCAR-3 ovarian): 3.22 µM
GI50 (TK-10 renal): 1.79 µM
TGI (TK-10 renal): 3.24 µM
GI50 (HOP-92 NSCLC): 1.8 µM
TGI (HOP-92 NSCLC): 3.48 µM
GI50 (HCT-116 colon): 1.87 µM
TGI (HCT-116 colon): 4.36 µM
GI50 (COLO 205 colon): 1.75 µM
TGI (COLO 205 colon): 3.58 µM
GI50 (MOLT-4 leukemia): 1.57 µM
TGI (MOLT-4 leukemia): 5.32 µM
GI50 (RXF 393 renal): 1.63 µM
TGI (RXF 393 renal): 3.02 µM
GI50 (BT-549 breast): 2.06 µM
TGI (BT-549 breast): 5.1 µM
GI50 (EKVX NSCLC): 2.53 µM
TGI (EKVX NSCLC): 7.55 µM
GI50 (SN12C renal): 3.51 µM
TGI (SN12C renal): 20.2 µM
GI50 (M14 melanoma): 1.85 µM
TGI (M14 melanoma): 3.76 µM
GI50 (SR leukemia): 0.783 µM
TGI (SR leukemia): 3.57 µM
GI50 (NCI/ADR-RES ovarian): 2.57 µM
TGI (NCI/ADR-RES ovarian): 9.61 µM
GI50 (HOP-62 NSCLC): 10.2 µM
TGI (HOP-62 NSCLC): 23.9 µM
GI50 (K-562 leukemia): 0.371 µM
TGI (K-562 leukemia): 3.3 µM
GI50 (HT29 colon): 2.18 µM
TGI (HT29 colon): 5.13 µM
GI50 (UACC-62 melanoma): 2.46 µM
TGI (UACC-62 melanoma): 11.2 µM
GI50 (SNB-19 CNS): 4.76 µM
TGI (SNB-19 CNS): 89.4 µM
GI50 (UO-31 renal): 1.54 µM
TGI (UO-31 renal): 3.01 µM
GI50 (T-47D breast): 2.1 µM
TGI (T-47D breast): 5.09 µM
GI50 (SW-620 colon): 2.06 µM
TGI (SW-620 colon): 4.41 µM
GI50 (RPMI-8226 leukemia): 2.16 µM
TGI (RPMI-8226 leukemia): 5.95 µM
GI50 (SK-MEL-2 melanoma): 2.89 µM
TGI (SK-MEL-2 melanoma): 9.46 µM
GI50 (MDA-MB-435): 3.21 µM
TGI (MDA-MB-435): 10.8 µM
GI50 (U251 CNS): 3.75 µM
TGI (U251 CNS): 16.1 µM
GI50 (SK-OV-3 ovarian): 10.5 µM
TGI (SK-OV-3 ovarian): 23.9 µM
GI50 (A498 renal): 11.7 µM
TGI (A498 renal): 28.3 µM
GI50 (PC-3 prostate): 3.31 µM
TGI (PC-3 prostate): 15.7 µM
GI50 (SF-268 CNS): 3.86 µM
TGI (SF-268 CNS): 17.1 µM
GI50 (NCI-H460 lung): 8.76 µM
TGI (NCI-H460 lung): 30.1 µM

COC(=O)c1ccc(NC2=C(Cl)C(=O)C(C)=C(C)C2=O)cc1
GI50 (A549 NSCLC): 5.25 µM
TGI (A549 NSCLC): > 100 µM
GI50 (NCI-H23 lung): 3.77 µM
TGI (NCI-H23 lung): > 100 µM
GI50 (KM12 colon): 2.06 µM
TGI (KM12 colon): 4.64 µM
GI50 (786-0 renal): 15.1 µM
TGI (786-0 renal): > 100 µM
GI50 (CCRF-CEM leukemia): 1.08 µM
TGI (CCRF-CEM leukemia): 4.98 µM
GI50 (OVCAR-5 ovarian): 6.08 µM
TGI (OVCAR-5 ovarian): > 100 µM
GI50 (HS 578T breast): 4 µM
TGI (HS 578T breast): 93.8 µM
GI50 (CAKI-1 renal): 2.95 µM
TGI (CAKI-1 renal): > 100 µM
GI50 (OVCAR-4 ovarian): 1.73 µM
TGI (OVCAR-4 ovarian): 3.14 µM
GI50 (NCI-H226 lung): 5.82 µM
TGI (NCI-H226 lung): > 100 µM
GI50 (UACC-257 melanoma): 3.07 µM
TGI (UACC-257 melanoma): > 100 µM
GI50 (HCC-2998 colon): 3.84 µM
TGI (HCC-2998 colon): > 100 µM
GI50 (MDA-MB-231 breast): 2.68 µM
TGI (MDA-MB-231 breast): 7.71 µM
GI50 (OVCAR-8 ovarian): 6.89 µM
TGI (OVCAR-8 ovarian): > 100 µM
GI50 (SF-539 CNS): 2.33 µM
TGI (SF-539 CNS): 5.91 µM
GI50 (DU-145 prostate): 11.2 µM
TGI (DU-145 prostate): > 100 µM
GI50 (SNB-75 CNS): 1.6 µM
TGI (SNB-75 CNS): 7.31 µM
GI50 (SK-MEL-5 melanoma): 1.92 µM
TGI (SK-MEL-5 melanoma): 4.08 µM
GI50 (SF-295 CNS): 2.18 µM
TGI (SF-295 CNS): 6.64 µM
GI50 (OVCAR-3 ovarian): 1.81 µM
TGI (OVCAR-3 ovarian): 3.3 µM
GI50 (TK-10 renal): > 100 µM
TGI (TK-10 renal): > 100 µM
GI50 (HOP-92 NSCLC): 1.46 µM
TGI (HOP-92 NSCLC): 3.11 µM
GI50 (COLO 205 colon): 7.69 µM
TGI (COLO 205 colon): > 100 µM
GI50 (MOLT-4 leukemia): 1.43 µM
TGI (MOLT-4 leukemia): 5.13 µM
GI50 (RXF 393 renal): 1.75 µM
TGI (RXF 393 renal): 4.25 µM
GI50 (SN12C renal): 9.11 µM
TGI (SN12C renal): > 100 µM
GI50 (M14 melanoma): 2.84 µM
TGI (M14 melanoma): 40.5 µM
GI50 (SR leukemia): 1.22 µM
TGI (SR leukemia): 4.02 µM
GI50 (NCI/ADR-RES ovarian): 2.65 µM
TGI (NCI/ADR-RES ovarian): 10.9 µM
GI50 (HOP-62 NSCLC): 5.52 µM
TGI (HOP-62 NSCLC): > 100 µM
GI50 (K-562 leukemia): 1.58 µM
TGI (K-562 leukemia): 5.31 µM
GI50 (HT29 colon): 6.64 µM
TGI (HT29 colon): > 100 µM
GI50 (UACC-62 melanoma): 1.77 µM
TGI (UACC-62 melanoma): 5.53 µM
GI50 (SNB-19 CNS): 3.32 µM
TGI (SNB-19 CNS): > 100 µM
GI50 (LOX IMVI melanoma): 1.81 µM
TGI (LOX IMVI melanoma): 3.41 µM
GI50 (T-47D breast): 1.74 µM
TGI (T-47D breast): 4.72 µM
GI50 (MCF7 breast): 2.66 µM
TGI (MCF7 breast): > 100 µM
GI50 (SW-620 colon): 2.1 µM
TGI (SW-620 colon): 4.42 µM
GI50 (RPMI-8226 leukemia): 2.19 µM
TGI (RPMI-8226 leukemia): 5.29 µM
GI50 (SK-MEL-2 melanoma): 3.2 µM
TGI (SK-MEL-2 melanoma): > 100 µM
GI50 (MDA-MB-435): 1.84 µM
TGI (MDA-MB-435): 8.73 µM
GI50 (U251 CNS): 3.77 µM
TGI (U251 CNS): > 100 µM
GI50 (SK-OV-3 ovarian): 5.13 µM
TGI (SK-OV-3 ovarian): > 100 µM
GI50 (A498 renal): 2.06 µM
TGI (A498 renal): 96.7 µM
GI50 (PC-3 prostate): 2.63 µM
TGI (PC-3 prostate): > 100 µM
GI50 (SF-268 CNS): 3.79 µM
TGI (SF-268 CNS): > 100 µM
GI50 (NCI-H460 lung): 4.7 µM
TGI (NCI-H460 lung): > 100 µM
